One compound from patent US10625229B2, “Device for preparing nano-carbon urea” (BEIJING NANO HI-TECH MATERIAL CO., LTD., priority 2016, dated 2020) can be followed below.

In experiment [1] the test system is corn. Put plainly: Field experiment on application of nano-carbon urea in corn (2016, Inner Mongolia). The class given is in vivo, corn variety Simon 568. Particulars: Pure N 20 kg/a unit of area (no nitrogen reduction). The source says:
The results of the experiment on the application of nano-carbon urea by bimeng academy of agricultural sciences in Inner Mongolia in 2016 are as follows: Nano-carbon urea is provided by the invention containing 46% nitrogen, and the amount of nano-carbon sol added is 10% of fertilizer weight, color: grey. Corn variety: Simon 568 Test site: Garden Canal Test Station of Agriculture and Animal Husbandry Science Research Institute, Bayannur City Random plot arrangement, 5 treatments, four repeats, […], mulch planting.

The test system of experiment [2] is soybean. Nature of the experiment: Soybean potted test of nano urea (Heilongjiang). The class given is in vivo. The settings on record: urea 10.8 g per pot (full dosage), 3 plants per pot. The source says: Soybean Experiment in Heilongjiang Agricultural Academy Test site: Heilongjiang Academy of Agricultural Sciences Laboratory Entrusted unit: Plant Nutrition and Environment Institute of Heilongjiang Agricultural Academy To determine the application effect and nitrogen utilization rate of nano-fertilizer on soybean and rice. Nano urea (46-0-0), calcium superphosphate (0-43-0), potassium sulfate (0-0-0-50), nano carbon sol content 0.57% solute, added amount is 10% of urea weight. Soybeans Potted Test There 3 plants per pot, repeat 6 times. N:P:K rating is 5:3.5:3, the results are as follows: […]

For the compound `NC(N)=O` [Common urea, urea], the “Yield kg/a unit of area” value in experiment [1] is recorded as 1002.98 kg/a unit of area. In addition, the Average yield g/pot in experiment [2] is 50 g/pot.
